Reference: PubChem BioAssay (NCI)
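Method: 48-hour compound exposure of cells in 96-well plates, five concentrations, linear interpolation of endpoints. Abbreviation: GI50, concentration required for 50% inhibition of growth. TGI marks complete inhibition of growth.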

How the values were obtained:
Assay in all cases: NCI tumour cell line growth inhibition, 48 h
[1] = system: A498 renal
[2] = system: U251 CNS
[3] = system: HL-60(TB) leukemia
[4] = system: HS 578T breast
[5] = system: COLO 205 colon
[6] = system: HCT-15 colon
[7] = system: IGROV1 ovarian
[8] = system: NCI/ADR-RES ovarian
[9] = system: MOLT-4 leukemia
[10] = system: A549 NSCLC
[11] = system: EKVX NSCLC
[12] = system: UACC-62 melanoma
[13] = system: MCF7 breast
[14] = system: T-47D breast
[15] = system: KM12 colon
[16] = system: HOP-92 NSCLC
[17] = system: OVCAR-4 ovarian
[18] = system: RXF 393 renal
[19] = system: UO-31 renal
[20] = system: NCI-H23 lung
[21] = system: SN12C renal
[22] = system: TK-10 renal
[23] = system: OVCAR-5 ovarian
[24] = system: M14 melanoma
[25] = system: OVCAR-3 ovarian
[26] = system: CAKI-1 renal
[27] = system: MDA-MB-435
[28] = system: HCC-2998 colon
[29] = system: CCRF-CEM leukemia
[30] = system: 786-0 renal
[31] = system: MALME-3M melanoma
[32] = system: NCI-H522 lung
[33] = system: NCI-H460 lung
[34] = system: UACC-257 melanoma
[35] = system: DU-145 prostate
[36] = system: LOX IMVI melanoma
[37] = system: SNB-75 CNS
[38] = system: SF-295 CNS
[39] = system: NCI-H226 lung
[40] = system: K-562 leukemia
[41] = system: HCT-116 colon
[42] = system: SK-OV-3 ovarian
[43] = system: RPMI-8226 leukemia
[44] = system: SR leukemia
[45] = system: SW-620 colon
[46] = system: SK-MEL-2 melanoma
[47] = system: HT29 colon
[48] = system: SF-268 CNS
[49] = system: SK-MEL-28 melanoma
[50] = system: PC-3 prostate
[51] = system: SK-MEL-5 melanoma
[52] = system: OVCAR-8 ovarian
[53] = system: MDA-MB-231 breast
[54] = system: SF-539 CNS
[55] = system: SNB-19 CNS
[56] = system: ACHN renal
[57] = system: HOP-62 NSCLC
[58] = system: BT-549 breast

Cc1ccccc1C(C(=O)NC1CCCCC1)N(C(=O)Cn1ccnc1C)c1cccc(F)c1 (configuration not stated)
GI50 [1]: 27.1 µM
TGI [1]: > 83.9 µM
GI50 [2]: > 52.1 µM
TGI [2]: > 100 µM
GI50 [3]: > 100 µM
TGI [3]: > 100 µM
GI50 [4]: 28.2 µM
TGI [4]: > 100 µM
GI50 [5]: > 92.1 µM
TGI [5]: > 100 µM
GI50 [6]: > 100 µM
TGI [6]: > 100 µM
GI50 [7]: > 77 µM
TGI [7]: > 100 µM
GI50 [8]: > 100 µM
TGI [8]: > 100 µM
GI50 [9]: > 100 µM
TGI [9]: > 100 µM
GI50 [10]: > 100 µM
TGI [10]: > 100 µM
GI50 [11]: > 100 µM
TGI [11]: > 100 µM
GI50 [12]: 59.3 µM
TGI [12]: > 100 µM
GI50 [13]: > 74 µM
TGI [13]: > 100 µM
GI50 [14]: > 58.4 µM
TGI [14]: > 100 µM
GI50 [15]: > 100 µM
TGI [15]: > 100 µM
GI50 [16]: 20 µM
TGI [16]: > 100 µM
GI50 [17]: > 76.7 µM
TGI [17]: > 100 µM
GI50 [18]: 7.5 µM
TGI [18]: 40.5 µM
GI50 [19]: > 51.6 µM
TGI [19]: > 100 µM
GI50 [20]: > 58 µM
TGI [20]: > 100 µM
GI50 [21]: > 53.4 µM
TGI [21]: > 100 µM
GI50 [22]: 27.5 µM
TGI [22]: 71.7 µM
GI50 [23]: > 100 µM
TGI [23]: > 100 µM
GI50 [24]: > 100 µM
TGI [24]: > 100 µM
GI50 [25]: > 69.5 µM
TGI [25]: > 100 µM
GI50 [26]: > 57.4 µM
TGI [26]: > 100 µM
GI50 [27]: > 100 µM
TGI [27]: > 100 µM
GI50 [28]: > 100 µM
TGI [28]: > 100 µM
GI50 [29]: > 100 µM
TGI [29]: > 100 µM
GI50 [30]: 37.2 µM
TGI [30]: > 100 µM
GI50 [31]: > 52.8 µM
TGI [31]: > 100 µM
GI50 [32]: > 100 µM
TGI [32]: > 100 µM
GI50 [33]: > 100 µM
TGI [33]: > 100 µM
GI50 [34]: > 100 µM
TGI [34]: > 100 µM
GI50 [35]: > 76.6 µM
TGI [35]: > 100 µM
GI50 [36]: 44 µM
TGI [36]: > 100 µM
GI50 [37]: 15.6 µM
TGI [37]: 59.1 µM
GI50 [38]: 28.8 µM
TGI [38]: > 65.6 µM
GI50 [39]: > 87.4 µM
TGI [39]: > 100 µM
GI50 [40]: > 100 µM
TGI [40]: > 100 µM
GI50 [41]: 46.2 µM
TGI [41]: > 100 µM
GI50 [42]: > 65.4 µM
TGI [42]: > 100 µM
GI50 [43]: > 100 µM
TGI [43]: > 100 µM
GI50 [44]: > 100 µM
TGI [44]: > 100 µM
GI50 [45]: > 100 µM
TGI [45]: > 100 µM
GI50 [46]: 21.3 µM
TGI [46]: 79.3 µM
GI50 [47]: > 100 µM
TGI [47]: > 100 µM
GI50 [48]: > 66.5 µM
TGI [48]: > 100 µM
GI50 [49]: > 100 µM
TGI [49]: > 100 µM
GI50 [50]: > 100 µM
TGI [50]: > 100 µM
GI50 [51]: > 100 µM
TGI [51]: > 100 µM
GI50 [52]: > 82.6 µM
TGI [52]: > 100 µM
GI50 [53]: 35.8 µM
TGI [53]: > 100 µM
GI50 [54]: 33.1 µM
TGI [54]: > 66.5 µM
GI50 [55]: 57 µM
TGI [55]: > 100 µM
GI50 [56]: > 58.7 µM
TGI [56]: > 100 µM
GI50 [57]: > 60.4 µM
TGI [57]: > 100 µM
GI50 [58]: > 52.6 µM
TGI [58]: > 100 µM

Cc1ccc(C[P+](c2ccccc2)(c2ccccc2)c2ccccc2)cc1
GI50 [1]: 1.84 µM
TGI [1]: 7.4 µM
GI50 [2]: 0.628 µM
TGI [2]: > 39.3 µM
GI50 [3]: 0.455 µM
TGI [3]: 3.36 µM
GI50 [4]: 0.366 µM
TGI [4]: 3.11 µM
GI50 [5]: 0.74 µM
TGI [5]: 6.7 µM
GI50 [6]: 11.7 µM
TGI [6]: > 73.1 µM
GI50 [7]: 2.33 µM
TGI [7]: > 100 µM
GI50 [8]: 37.7 µM
TGI [8]: > 100 µM
GI50 [9]: 2.44 µM
TGI [9]: > 21.7 µM
GI50 [10]: 0.684 µM
GI50 [11]: 0.369 µM
TGI [11]: > 58.6 µM
GI50 [12]: 0.907 µM
TGI [12]: 14.1 µM
GI50 [13]: 0.701 µM
TGI [13]: > 33 µM
GI50 [14]: 0.314 µM
GI50 [15]: 0.438 µM
TGI [15]: 4.5 µM
GI50 [16]: 0.768 µM
TGI [16]: 22.2 µM
GI50 [17]: 0.768 µM
TGI [17]: > 100 µM
GI50 [18]: 3.24 µM
TGI [18]: 20.3 µM
GI50 [19]: 6.08 µM
TGI [19]: 39.4 µM
GI50 [20]: 0.554 µM
TGI [20]: 5.46 µM
GI50 [21]: 1.79 µM
TGI [21]: 23.7 µM
GI50 [22]: 1.71 µM
TGI [22]: 23.4 µM
GI50 [23]: 1.93 µM
TGI [23]: > 25.2 µM
GI50 [24]: 1.32 µM
TGI [24]: 11.1 µM
GI50 [25]: 0.638 µM
TGI [25]: 5.19 µM
GI50 [26]: 0.486 µM
TGI [26]: 17.3 µM
GI50 [27]: 0.515 µM
TGI [27]: 5.4 µM
GI50 [28]: 0.441 µM
TGI [28]: 6.41 µM
GI50 [29]: 1.31 µM
GI50 [30]: 1.71 µM
TGI [30]: 8.02 µM
GI50 [31]: 0.428 µM
TGI [31]: 14.5 µM
GI50 [32]: 0.75 µM
GI50 [33]: 0.76 µM
TGI [33]: 6.99 µM
GI50 [34]: 0.267 µM
TGI [34]: 3.56 µM
GI50 [35]: 1.38 µM
TGI [35]: 43.4 µM
GI50 [36]: 1.07 µM
TGI [36]: 4.24 µM
GI50 [37]: 1.55 µM
TGI [37]: 18.8 µM
GI50 [38]: 0.99 µM
TGI [38]: 8.11 µM
GI50 [39]: 1.73 µM
TGI [39]: > 25.8 µM
GI50 [40]: 0.574 µM
TGI [40]: > 24.6 µM
GI50 [41]: 0.382 µM
TGI [41]: 5.21 µM
GI50 [42]: 2.57 µM
TGI [42]: > 26.6 µM
GI50 [43]: 0.201 µM
TGI [43]: 18 µM
GI50 [44]: 1.04 µM
GI50 [45]: 1.36 µM
TGI [45]: 12.2 µM
GI50 [46]: 2.12 µM
TGI [46]: > 100 µM
GI50 [47]: 0.427 µM
TGI [47]: > 41.6 µM
GI50 [48]: 2.7 µM
TGI [48]: > 57.8 µM
GI50 [49]: 0.987 µM
TGI [49]: 10.6 µM
GI50 [50]: 0.997 µM
TGI [50]: > 100 µM
GI50 [51]: 0.321 µM
TGI [51]: 1.27 µM
GI50 [52]: 0.781 µM
TGI [52]: 4.65 µM
GI50 [53]: 2.54 µM
TGI [53]: 29.3 µM
GI50 [54]: 2.15 µM
TGI [54]: > 46.4 µM
GI50 [55]: 2.18 µM
TGI [55]: > 39.5 µM
GI50 [56]: 5.94 µM
TGI [56]: > 74.9 µM
GI50 [57]: 1.55 µM
TGI [57]: 6.28 µM
GI50 [58]: 0.671 µM
TGI [58]: 14.3 µM
